PubChem BioAssay AID252 (DTP/NCI, 2004)
Toxic doses and inconclusive results are not listed.

System: BDF1 mice, intracerebral L1210 leukemia, survival T/C
Experiment: NCI In Vivo Anticancer Drug Screen. Data for tumor model L1210 Leukemia (intracerebral) in B6D2F1 (BDF1) mice
Conditions: higher = longer survival
Outline: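 Readout is the T/C ratio: survival of compound-treated animals over that of vehicle-treated controls, in mice bearing transplantable tumour.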

**Q.** For `CNNCc1ccc(C(=O)NC(C)C)cc1`, which T/C (endpoint: mean survival time, dose: 25.0 mg/kg/injection, schedule: Q01DX009 (ip), vehicle: saline) is on record?
**A.** 105 % of control

**Q.** What about the T/C (endpoint: mean survival time, dose: 40.0 mg/kg/injection, schedule: Q01DX Z (ip), vehicle: saline) of the same compound?
**A.** 122 % of control

**Q.** What about the T/C (endpoint: mean survival time, dose: 50.0 mg/kg/injection, schedule: Q01DX009 (ip), vehicle: saline) of the same compound?
**A.** 108 % of control

**Q.** What about the T/C (endpoint: mean survival time, dose: 64.0 mg/kg/injection, schedule: Q01DX010 (oral), vehicle: clinical formulation) of the same compound?
**A.** 102 % of control

**Q.** And the T/C (endpoint: mean survival time, dose: 160.0 mg/kg/injection, schedule: Q01DX Z (ip), vehicle: saline)?
**A.** 155 % of control

**Q.** And the T/C (endpoint: median survival time, dose: 0.5 mg/kg/injection, schedule: Q01DX010 (ip), vehicle: clinical formulation)?
**A.** 105 % of control

**Q.** What about the T/C (endpoint: median survival time, dose: 0.5 mg/kg/injection, schedule: Q01DX010 (ip), vehicle: saline) of the same compound?
**A.** 106 % of control

**Q.** What about the T/C (endpoint: median survival time, dose: 1.0 mg/kg/injection, schedule: Q01DX010 (ip), vehicle: clinical formulation) of the same compound?
**A.** 105 % of control

**Q.** What about the T/C (endpoint: median survival time, dose: 1.0 mg/kg/injection, schedule: Q01DX010 (ip), vehicle: saline) of the same compound?
**A.** 103 % of control

**Q.** What about the T/C (endpoint: median survival time, dose: 1.0 mg/kg/injection, schedule: Q01DX010 (oral), vehicle: clinical formulation) of the same compound?
**A.** 105 % of control

**Q.** What about the T/C (endpoint: median survival time, dose: 2.0 mg/kg/injection, schedule: Q01DX010 (ip), vehicle: clinical formulation) of the same compound?
**A.** 103 % of control

**Q.** And the T/C (endpoint: median survival time, dose: 2.0 mg/kg/injection, schedule: Q01DX010 (ip), vehicle: saline)?
**A.** 106 % of control

**Q.** And the T/C (endpoint: median survival time, dose: 2.0 mg/kg/injection, schedule: Q01DX010 (oral), vehicle: clinical formulation)?
**A.** 103 % of control

**Q.** And the T/C (endpoint: median survival time, dose: 4.0 mg/kg/injection, schedule: Q01DX010 (ip), vehicle: clinical formulation)?
**A.** 99 % of control

**Q.** What about the T/C (endpoint: median survival time, dose: 4.0 mg/kg/injection, schedule: Q01DX010 (ip), vehicle: saline) of the same compound?
**A.** 106 % of control

**Q.** What about the T/C (endpoint: median survival time, dose: 4.0 mg/kg/injection, schedule: Q01DX010 (oral), vehicle: clinical formulation) of the same compound?
**A.** 105 % of control

**Q.** What about the T/C (endpoint: median survival time, dose: 8.0 mg/kg/injection, schedule: Q01DX010 (ip), vehicle: clinical formulation) of the same compound?
**A.** 101 % of control

**Q.** What about the T/C (endpoint: median survival time, dose: 8.0 mg/kg/injection, schedule: Q01DX010 (ip), vehicle: saline) of the same compound?
**A.** 111 % of control

**Q.** And the T/C (endpoint: median survival time, dose: 8.0 mg/kg/injection, schedule: Q01DX010 (oral), vehicle: clinical formulation)?
**A.** 95 % of control

**Q.** What about the T/C (endpoint: median survival time, dose: 16.0 mg/kg/injection, schedule: Q01DX010 (ip), vehicle: clinical formulation) of the same compound?
**A.** 103 % of control

**Q.** And the T/C (endpoint: median survival time, dose: 16.0 mg/kg/injection, schedule: Q01DX010 (ip), vehicle: saline)?
**A.** 109 % of control

**Q.** And the T/C (endpoint: median survival time, dose: 16.0 mg/kg/injection, schedule: Q01DX010 (oral), vehicle: clinical formulation)?
**A.** 92 % of control

**Q.** And the T/C (endpoint: median survival time, dose: 32.0 mg/kg/injection, schedule: Q01DX010 (ip), vehicle: clinical formulation)?
**A.** 101 % of control

**Q.** What about the T/C (endpoint: median survival time, dose: 32.0 mg/kg/injection, schedule: Q01DX010 (ip), vehicle: saline) of the same compound?
**A.** 104 % of control

**Q.** What about the T/C (endpoint: median survival time, dose: 32.0 mg/kg/injection, schedule: Q01DX010 (oral), vehicle: clinical formulation) of the same compound?
**A.** 97 % of control

**Q.** And the T/C (endpoint: median survival time, dose: 64.0 mg/kg/injection, schedule: Q01DX010 (oral), vehicle: clinical formulation)?
**A.** 109 % of control

**Q.** And the T/C (endpoint: median survival time, dose: 128.0 mg/kg/injection, schedule: Q01DX010 (oral), vehicle: clinical formulation)?
**A.** 104 % of control

**Q.** Which results are given for `CS(=O)(=O)Nc1ccc(Nc2c3ccccc3nc3cc([N+](=O)[O-])ccc23)cc1`?
**A.** T/C (endpoint: mean survival time, dose: 1.25 mg/kg/injection, schedule: Q01DX009 (ip), vehicle: Klucel (hydroxypropylcellulose) (HPC)): 91 % of control; T/C (endpoint: mean survival time, dose: 1.25 mg/kg/injection, schedule: Q01DX009 (sc), vehicle: Klucel (hydroxypropylcellulose) (HPC)): 106 % of control; T/C (endpoint: mean survival time, dose: 2.5 mg/kg/injection, schedule: Q01DX009 (ip), vehicle: Klucel (hydroxypropylcellulose) (HPC)): 87 % of control; T/C (endpoint: mean survival time, dose: 2.5 mg/kg/injection, schedule: Q01DX009 (sc), vehicle: Klucel (hydroxypropylcellulose) (HPC)): 97 % of control; T/C (endpoint: mean survival time, dose: 3.12 mg/kg/injection, schedule: Q01DX001 (ip), vehicle: saline): 98 % of control; T/C (endpoint: mean survival time, dose: 5.0 mg/kg/injection, schedule: Q01DX009 (ip), vehicle: Klucel (hydroxypropylcellulose) (HPC)): 89 % of control; T/C (endpoint: mean survival time, dose: 5.0 mg/kg/injection, schedule: Q01DX009 (sc), vehicle: Klucel (hydroxypropylcellulose) (HPC)): 103 % of control; T/C (endpoint: mean survival time, dose: 6.25 mg/kg/injection, schedule: Q01DX001 (ip), vehicle: saline): 98 % of control; T/C (endpoint: mean survival time, dose: 10.0 mg/kg/injection, schedule: Q01DX009 (sc), vehicle: Klucel (hydroxypropylcellulose) (HPC)): 102 % of control; T/C (endpoint: mean survival time, dose: 12.5 mg/kg/injection, schedule: Q01DX001 (ip), vehicle: saline): 101 % of control; T/C (endpoint: mean survival time, dose: 25.0 mg/kg/injection, schedule: Q01DX001 (ip), vehicle: saline): 101 % of control; T/C (endpoint: mean survival time, dose: 50.0 mg/kg/injection, schedule: Q01DX001 (ip), vehicle: saline): 90 % of control

**Q.** Which results are given for `CS(=O)(=O)OCCCCOS(C)(=O)=O`?
**A.** T/C (endpoint: mean survival time, dose: 27.0 mg/kg/injection, schedule: Q01DX001 (ip), vehicle: carboxymethylcellulose (CMC)): 95 % of control; T/C (endpoint: mean survival time, dose: 41.0 mg/kg/injection, schedule: Q01DX001 (ip), vehicle: carboxymethylcellulose (CMC)): 93 % of control; T/C (endpoint: mean survival time, dose: 61.0 mg/kg/injection, schedule: Q01DX001 (ip), vehicle: carboxymethylcellulose (CMC)): 94 % of control
